The results in this text go back to ChEMBL document CHEMBL1201862, “PubChem BioAssay data set” (2004).

As usually defined, the GI50 is the concentration at which growth is held to half of that of the control.

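Grown in 96-well plates, cells were treated for 48 hours with each compound at five concentrations. Insufficient inhibition: endpoint recorded as highest concentration tested. At the GI50, growth is halved.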 Calls of active or inactive are those of the source. Cut-off read from the data, not from the text of the source: active = GI50 up to about 1.1 µM and inactive = higher.

What all share (test): DTP human tumour cell line panel, 48 h
In test [1] the test system is UACC-257.
The test system of test [2] is SW-620.
Test [3] has as its system MDA-MB-435.
The test system of test [4] is OVCAR-4.
The subject of test [5] is UO-31.
Test [6] relates to LOX IMVI.
Test [7] has as its system OVCAR-3.
The subject of test [8] is DU-145.
The test system of test [9] is SR.
Test [10] concerns NCI/ADR-RES.
Test [11] concerns MDA-N.
The subject of test [12] is SK-OV-3.
Test [13] relates to HL-60.
In test [14] the test system is BT-549.
Test [15] relates to HCT-15.
Test [16] concerns TK-10.
For test [17], the system named is OVCAR-8.
The test system of test [18] is M14.
In test [19] the test system is UACC-62.
Test [20] concerns KM-20L2.

`C=C1c2nc3ccccc3n2C=C(c2ccccc2)N1c1ccccc1`: the GI50 was 74.1 µM (inactive) in [1]; 40.3 µM (inactive) in test [2]; 40.5 µM (inactive) in test [3]; 16.4 µM (inactive) in test [4]; 25.7 µM (inactive) in test [5]; 42.2 µM (inactive) in test [6]. Further, the GI50 is > 100 µM (inactive) in [7]; > 100 µM (inactive) in test [8]; 21.7 µM (inactive) in [9]; 34 µM (inactive) in test [10]; 39.8 µM (inactive) in [11]; > 100 µM (inactive) in [12]. In addition, the GI50 in test [13] was 58.7 µM (inactive); in [14], 24.5 µM (inactive); in [15], 13.6 µM; in test [16] it was 49 µM (inactive); in test [17], 37.8 µM (inactive); in [18], 67.9 µM (inactive). Further, the GI50 in [19] was 43.1 µM (inactive).
For `CCCN(CCCCC(NC(C)=O)C(=O)NCc1ccccc1)C(=O)N(C)N=O` (configuration not stated), the GI50 in [1], in [2], in test [4], in test [5], in [6] and in test [7] was > 100 µM (inactive) throughout. In addition, the GI50 is > 100 µM (inactive) in test [20]; > 100 µM (inactive) in test [12]; above 100 µM in test [15]; > 100 µM (inactive) in [16]; > 100 µM (inactive) in test [17]; > 100 µM (inactive) in [18]. In addition, the GI50 in test [19] was > 100 µM (inactive).
On to `C/C(=N\NC(=O)CC(=O)Nc1ccc(Cl)cc1)c1cc2ccccc2oc1=O`, for which the GI50 in test [1], in [2], in test [5], in test [6], in test [7] and in test [20] was > 100 µM (inactive) each time. For the same compound, the GI50 was > 100 µM (inactive) in test [12]; > 100 µM (inactive) in test [13]; above 100 µM in test [15]; > 100 µM (inactive) in test [16]; > 100 µM (inactive) in test [17]; > 100 µM (inactive) in [18]. For the same compound, the GI50 in test [19] is > 100 µM (inactive).
Consider `C/C=C/C=C\C=C/C(O)C(C)C(CCC(C)C1OC(=O)C=CC1C)OP(=O)(O)O` (configuration not stated), for which the GI50 in test [1] was 1.15 µM (inactive); in test [2], 0.479 µM (active); in [3], 0.133 µM (active); in test [4] it was 1.23 µM (inactive); in test [5], 0.399 µM (active); in test [6], 0.314 µM (active). Besides, the GI50 in [7] is 0.182 µM (active); in [8], 0.399 µM (active); in test [9] it was 0.176 µM (active); in test [10], 0.897 µM (active); in test [11], 0.296 µM (active); in test [12] it was 0.502 µM (active). In addition, the GI50 was 0.0425 µM (active) in test [13]; 0.224 µM (active) in test [14]; 0.445 µM in [15]; 0.618 µM (active) in test [16]; 0.451 µM (active) in test [17]; 0.229 µM (active) in test [18]. In addition, the GI50 in test [19] was 0.319 µM (active).
Regarding `C/C=C/C[C@@H](C)C(=O)C1C(=O)N[C@@H](C(C)C)C(=O)N(C)CC(=O)N(C)[C@@H](CC(C)C)C(=O)N[C@@H](C(C)C)C(=O)N(C)[C@@H](CC(C)C)C(=O)N[C@@H](C)C(=O)N[C@@H](C)C(=O)N(C)[C@@H](CC(C)C)C(=O)N(C)[C@@H](CC(C)C)C(=O)N(C)[C@@H](C(C)C)C(=O)N1C` (some centres not stated), the GI50 in test [1] is 5.33 µM (inactive); in [2], 5.24 µM (inactive); in [3] it was 3.35 µM (inactive); in test [4], 2.74 µM (inactive); in test [5], 3.78 µM (inactive); in test [6] it was 2.82 µM (inactive). The GI50 is 4.09 µM (inactive) in test [7]; 4.06 µM (inactive) in test [8]; 4.07 µM (inactive) in [9]; 2.74 µM (inactive) in [10]; 2.39 µM (inactive) in [11]; > 20.5 µM (inactive) in [12]. Further, the GI50 in test [13] is 2.8 µM (inactive); in test [14], 4.98 µM (inactive); in test [15] it was 5.51 µM; in test [16], 6.1 µM (inactive); in test [17], 9.82 µM (inactive); in test [18] it was 6.28 µM (inactive). Besides, in [19], the GI50 is 4.5 µM (inactive).
In the case of `Nc1nc(CCc2n[nH]c(N)n2)n[nH]1`, the GI50 in test [1], in test [2], in test [4], in test [5], in [6] and in test [7] was > 100 µM (inactive) throughout. Also, the GI50 is > 100 µM (inactive) in [20]; > 100 µM (inactive) in test [12]; > 100 µM (inactive) in [13]; above 100 µM in test [15]; > 100 µM (inactive) in test [16]; > 100 µM (inactive) in test [17]. Besides, the GI50 in test [18] and in test [19] was > 100 µM (inactive) in each case.
